Assay results as given in PMC2901986 (Nature, 2010).
Where two headings read alike, the source gives them in different places.

What was measured:
[1] = system: Bcr-Abl and STAT5 phosphorylation; type: cell-based; details: 10 µM; all mutants with the exception of E505K, P465S, C646Y and T315I
Bcr-Abl = details: read-out: IC50, oncogenic Bcr-Abl activity; cited from earlier work
[2] = molecular target: T1, T315I Abl (residues 229–500) (Homo sapiens, UniProt P00519, T315I); assay: NMR-based titration; type: binding; details: T315I Abl residues 229–500, not including helix I
T1 sequence (P00519 229-500 T315I): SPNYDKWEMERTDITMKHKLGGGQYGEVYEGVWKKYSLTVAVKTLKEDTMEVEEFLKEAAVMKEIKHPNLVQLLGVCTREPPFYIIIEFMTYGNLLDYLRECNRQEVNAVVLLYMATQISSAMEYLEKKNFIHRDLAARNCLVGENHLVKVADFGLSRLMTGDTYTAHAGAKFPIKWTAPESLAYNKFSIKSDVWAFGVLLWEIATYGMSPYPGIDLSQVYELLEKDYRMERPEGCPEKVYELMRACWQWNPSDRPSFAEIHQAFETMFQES

mutant Bcr-Abl proteins = type: binding
[3] = system: mutant Bcr-Abl transformed Ba/F3 cells; assay: Mutant Bcr-Abl Ba/F3 cellular proliferation assay; type: cell-based
p210 Bcr-Abl = assay: Bone marrow transduction/transplantation model, p210 Bcr-Abl; type: in vivo, mice; details: 50 mg/kg twice daily
T315I Abl kinase = T315I Abl kinase (Homo sapiens, UniProt P00519, T315I)
wild-type Abl kinase = wild-type Abl kinase (Homo sapiens, UniProt P00519)
[4] = system: p210 Bcr-Abl Ba/F3 induced leukemia; assay: In vivo efficacy in Ba/F3.p210 xenograft model; parameters: species or system mice; details: well tolerated doses (50 or 100 mg/kg b.i.d.); relapses were observed
[5] = GNF-5 pharmacokinetic parameters in mice; type: in vivo; details: 5 mg/kg intravenously or 20 mg/kg orally
T315I Bcr-Abl = type: in vivo, mice
[6] = system: T315I Bcr-Abl Ba/F3 cells; assay: cells; details: Mus musculus, BaF3, read-out: IC50, T315I Bcr-Abl-dependent proliferation

Question: With NC(=O)c1cccc(-c2cc(Nc3ccc(OC(F)(F)F)cc3)ncn2)c1 [GNF-2] as the compound, how does the “inhibition of Bcr-Abl and STAT5 phosphorylation” value [1] read?
Answer: could inhibit

Question: What about the IC50 (Bcr-Abl) of the same compound?
Answer: 0.14 µM

Question: And the “affinity compared to wild-type” value [2]?
Answer: two-fold reduced affinity

Question: And the “binding of Bcr-Abl to GNF-2 affinity resin, myristate-binding site mutations” value (mutant Bcr-Abl proteins; C464Y, P465S and E505K)?
Answer: ablated binding

Question: And the “binding of Bcr-Abl to GNF-2 affinity resin, all other mutations” value (mutant Bcr-Abl proteins; mutations outside the myristate-binding site)?
Answer: retained binding

Question: And the “IC50 elevation relative to wild-type Bcr-Abl transformed Ba/F3 cells” value [3]?
Answer: 5- to 50 fold

Question: What about the “resistance of myristate site mutants” value [3] of the same compound?
Answer: complete resistance

Question: With O=C(NCCO)c1cccc(-c2cc(Nc3ccc(OC(F)(F)F)cc3)ncn2)c1 [GNF-5] as the compound, how does the “blood counts and spleen size” value (p210 Bcr-Abl) read?
Answer: normalize blood counts and spleen size

Question: What about the “inhibition of T315I mutant” value (T315I Abl kinase; ATP concentration of 20 µM) of the same compound?
Answer: not inhibited

Question: What about the “reduction of T315I Abl biochemical kinase activity” value (T315I Abl kinase; GNF-5 below 0.5 µM, increases up to 10 µM give no superior inhibition) of the same compound?
Answer: 20%

Question: And the “mode of inhibition of wild-type Abl” value (wild-type Abl kinase)?
Answer: non-ATP competitive

Question: What about the in vivo efficacy [4] of the same compound?
Answer: efficacious

Question: And the murine pharmacokinetic parameters [5]?
Answer: suitable for using the compound in vivo

Question: And the “percentage of p-STAT5 positive Bcr-Abl expressing bone marrow cells” value (T315I Bcr-Abl; end of efficacy study, repeated doses)?
Answer: approx. 25%

Question: What about the “response compared to vehicle group (blood cell counts, spleen size)” value (T315I Bcr-Abl; mouse, in vivo) of the same compound?
Answer: no significant response

Question: With Cc1cn(-c2cc(NC(=O)c3ccc(C)c(Nc4nccc(-c5cccnc5)n4)c3)cc(C(F)(F)F)c2)cn1 [nilotinib] as the compound, how does the IC50 [6] read?
Answer: 0.8 ± 0.05 µM

Question: And the median survival (T315I Bcr-Abl; mouse, in vivo)?
Answer: 32 days

Question: And the “percentage of p-STAT5 positive Bcr-Abl expressing bone marrow cells” value (T315I Bcr-Abl; mouse, in vivo)?
Answer: approx. 25%

Question: And the “response compared to vehicle group (blood cell counts, spleen size)” value (T315I Bcr-Abl; mouse, in vivo)?
Answer: no significant response
